Measurements reported in ChEMBL document CHEMBL1201862, “PubChem BioAssay data set” (2004).
Calls of active or inactive are those of the source.

How the values were obtained:
P388 = test: cells; assay type: functional; conditions: Mus musculus
SN12K1 = test: cells; assay type: functional; conditions: Homo sapiens
P388/ADR = test: cells; assay type: functional; conditions: Mus musculus
[1] = target: T1, Corticotropin-releasing factor receptor 2/Corticotropin-releasing factor-binding protein (Homo sapiens, UniProt P24387+Q13324); test: Dose Response confirmation of uHTS hits for small molecule antagonists of the CRF-binding protein and CRF-R2 receptor complex.; assay type: functional; conditions: read-out: IC50_Mean
T1 sequence (Q13324 whole entry): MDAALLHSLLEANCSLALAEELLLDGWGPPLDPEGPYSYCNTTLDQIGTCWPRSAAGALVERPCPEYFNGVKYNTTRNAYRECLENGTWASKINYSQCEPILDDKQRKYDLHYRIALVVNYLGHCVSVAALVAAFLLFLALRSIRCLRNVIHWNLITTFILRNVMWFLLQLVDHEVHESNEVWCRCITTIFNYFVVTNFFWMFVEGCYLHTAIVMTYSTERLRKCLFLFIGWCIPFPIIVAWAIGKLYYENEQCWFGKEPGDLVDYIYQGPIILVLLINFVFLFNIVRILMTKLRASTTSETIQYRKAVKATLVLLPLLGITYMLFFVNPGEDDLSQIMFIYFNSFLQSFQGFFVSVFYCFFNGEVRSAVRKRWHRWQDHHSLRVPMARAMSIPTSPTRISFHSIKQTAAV
T1 sequence (P24387 whole entry): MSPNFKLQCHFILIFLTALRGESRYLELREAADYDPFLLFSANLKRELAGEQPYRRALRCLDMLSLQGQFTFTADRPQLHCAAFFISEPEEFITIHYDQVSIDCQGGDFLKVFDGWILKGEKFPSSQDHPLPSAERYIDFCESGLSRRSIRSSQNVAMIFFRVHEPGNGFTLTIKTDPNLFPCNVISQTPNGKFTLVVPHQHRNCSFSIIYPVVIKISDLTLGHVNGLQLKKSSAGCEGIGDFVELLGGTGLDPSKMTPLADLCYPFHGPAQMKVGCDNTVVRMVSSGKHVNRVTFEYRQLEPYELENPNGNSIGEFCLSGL

[2] = CRF-BP/CRF-R2 complex antagonists, dose response, cell-based, uHTS hits, 384-well (AID 651639); assay type: functional, Homo sapiens; conditions: read-out: IC50_Mean
[3] = target: T1, Corticotropin-releasing factor receptor 2/Corticotropin-releasing factor-binding protein; test: activators of CRF receptor 2 with binding protein – uHTS hits, confirmation (AID 602473); assay type: functional; conditions: read-out: EC50_Mean
[4] = target: Glucose-6-phosphate 1-dehydrogenase (Homo sapiens, UniProt P11413); test: human G6PD enzyme inhibitors, dose response, selectivity assay for P. falciparum G6PD inhibitor project, biochemical, fluorescence (AID 504792); assay type: functional
[5] = inhibitors of HIV Env-driven cell fusion, dose response, cherry-pick (AID 652057); assay type: functional, cell-based
[6] = inhibitors of clade B AD8 Env fusion, dose response, cell-based, cherry-pick (AID 652062); assay type: functional;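 further: luciferase signal from cell-cell fusion driven by HIV-1 clade B AD8 Env; potency is for inhibitors of fusion seen as a drop in luminescence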
[7] = Luminescence Cell-Based Dose Confirmation HTS to Identify Activators of 5'UTR Stem-Loop Driven Alpha-Synuclein mRNA Translation in H4 Neuroglioblastoma Cells. [Related pubchem assays: 1829 (Project Summary), 1814 (Primary HTS)]; assay type: functional
[8] = target: T2, Calpain-2 catalytic subunit (Sus scrofa, UniProt P43367); test: pig calpain II inhibitor potency, dose response, biochemical, fluorogenic peptide substrate (AID 1420); assay type: functional
T2 sequence (P43367 whole entry): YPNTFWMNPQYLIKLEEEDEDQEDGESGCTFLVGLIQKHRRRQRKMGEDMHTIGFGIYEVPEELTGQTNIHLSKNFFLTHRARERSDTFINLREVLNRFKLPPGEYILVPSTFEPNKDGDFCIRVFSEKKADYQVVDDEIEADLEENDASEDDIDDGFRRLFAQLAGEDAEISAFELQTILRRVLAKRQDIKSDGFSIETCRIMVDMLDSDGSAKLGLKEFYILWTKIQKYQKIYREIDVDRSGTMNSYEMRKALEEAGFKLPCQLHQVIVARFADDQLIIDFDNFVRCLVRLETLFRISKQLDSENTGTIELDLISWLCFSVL

H4 = test: Luminescence Cell-Based Dose Response HTS to Identify Activators of 5'UTR Stem-Loop Driven Prion Protein mRNA Translation in H4 Neuroglioblastoma Cells. [Related pubchem assays: 1829 (Project Summary), 1814 (Primary HTS)]; assay type: functional; conditions: Homo sapiens
[9] = Luminescence Cell-Based Dose Response HTS to Identify Activators of Luciferase Translation or Activity in H4 […] Cells. [Related pubchem assays: 1829 (Project Summary), 1814 (Primary HTS)]; assay type: functional
[10] = target: T3, Carboxy-terminal domain RNA polymerase II polypeptide A small phosphatase 1 (Homo sapiens, UniProt Q9GZU7); test: inhibitors of CTDSP1, concentration-response testing, biochemical assay, absorbance-based, actives from ultra-high-throughput screening (AID 540297); assay type: functional
T3 sequence (Q9GZU7 whole entry): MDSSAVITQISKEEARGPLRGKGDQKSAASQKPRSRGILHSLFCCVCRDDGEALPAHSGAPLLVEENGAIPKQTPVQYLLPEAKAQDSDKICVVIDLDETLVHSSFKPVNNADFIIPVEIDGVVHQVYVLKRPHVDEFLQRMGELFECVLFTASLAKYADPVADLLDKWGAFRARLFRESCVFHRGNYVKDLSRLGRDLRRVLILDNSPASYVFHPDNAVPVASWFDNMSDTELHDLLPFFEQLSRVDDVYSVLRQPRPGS

[11] = HepG2 cell cytotoxicity, dose response, cytotoxicity control for Shn3 inhibitor project, CellTiter-Glo, cherry-picked (AID 624134); assay type: functional, cell-based
[12] = control 3'UTR Renilla luciferase suppression, dose response, counter-screen for Shn3 inhibitor project, cell-based, Clone20-Shn3RL, cherry-picked (AID 624133); assay type: functional
[13] = Shn3 3'UTR reporter inhibitors, dose response, cell-based, Clone20 osteoblasts, firefly luciferase, cherry-picked (AID 624132); assay type: functional;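 further: firefly luciferase luminescence from reporter carrying the Shn3 3'UTR in osteoblasts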
[14] = target: T4, Heat shock factor protein 1 (Mus musculus, UniProt P38532); test: HSF1 potentiators in luciferase reporter cells, confirmation, cell-based, NIH3T3, luminescence, dose retest (AID 435004); assay type: functional;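 further: stress induced by proteasome inhibitor MG132 added 30 min after compound; luciferase reporter driven by HSF1 response element in NIH3T3 cells; actives raise luminescence as potentiators of the MG132 stress response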
T4 sequence (P38532 whole entry): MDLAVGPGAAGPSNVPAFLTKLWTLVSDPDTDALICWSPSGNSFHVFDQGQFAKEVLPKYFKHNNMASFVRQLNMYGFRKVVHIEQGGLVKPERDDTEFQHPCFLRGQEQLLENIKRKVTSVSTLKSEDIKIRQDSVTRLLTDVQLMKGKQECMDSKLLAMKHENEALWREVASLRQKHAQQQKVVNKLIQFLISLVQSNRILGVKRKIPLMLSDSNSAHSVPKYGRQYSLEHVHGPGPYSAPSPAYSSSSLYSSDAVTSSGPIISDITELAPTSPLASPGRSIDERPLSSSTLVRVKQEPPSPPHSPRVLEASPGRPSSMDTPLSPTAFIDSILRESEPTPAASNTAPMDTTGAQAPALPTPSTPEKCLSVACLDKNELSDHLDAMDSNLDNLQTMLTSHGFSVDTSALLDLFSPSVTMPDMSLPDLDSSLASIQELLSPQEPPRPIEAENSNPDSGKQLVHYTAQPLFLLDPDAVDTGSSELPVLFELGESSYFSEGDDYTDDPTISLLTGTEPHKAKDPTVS

cells = assay type: functional
Large T antigen = Large T antigen (Simian virus 40, UniProt P03070); assay type: functional, Betapolyomavirus macacae;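 further: Confirmatory-stage PubChem screen for compounds that inhibit SV40 T antigen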
Genome polyprotein = Genome polyprotein (dengue virus type 2, UniProt P29990); test: Dengue-2 NS5 methyltransferase inhibitors, primary screen, biochemical, confirmation dose response (AID 588689); assay type: functional
INS1 = test: beta cell apoptosis inhibitors, cytokine rescue, dose response, luminescence, retest (AID 449756); assay type: functional, cell-based; conditions: Rattus norvegicus, INS1;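 further: cell death triggered by IL-1 beta plus TNF-alpha plus IFN-gamma mixture; protective hits raise ATP signal compared with cytokine alone wells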
[15] = growth suppression of beta-catenin-knockout colon cells, dose response, cell-based, HCT116, human colon tumor (AID 1045); assay type: functional;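 further: HCT116 colon tumor cells with beta catenin knocked out; cells exposed to compound for 60 hours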
[16] = growth suppression of PTEN-null colon cells, dose response, cell-based, HCT116 PTEN knockout (AID 1047); assay type: functional;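 further: HCT116 colon tumor cells with PTEN knocked out; cells exposed to compound for 60 hours before readout; potency for loss of cell viability measured by luminescence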

Glucose-6-phosphate 1-dehydrogenase, sequence (P11413 whole entry, the tested form may be a part): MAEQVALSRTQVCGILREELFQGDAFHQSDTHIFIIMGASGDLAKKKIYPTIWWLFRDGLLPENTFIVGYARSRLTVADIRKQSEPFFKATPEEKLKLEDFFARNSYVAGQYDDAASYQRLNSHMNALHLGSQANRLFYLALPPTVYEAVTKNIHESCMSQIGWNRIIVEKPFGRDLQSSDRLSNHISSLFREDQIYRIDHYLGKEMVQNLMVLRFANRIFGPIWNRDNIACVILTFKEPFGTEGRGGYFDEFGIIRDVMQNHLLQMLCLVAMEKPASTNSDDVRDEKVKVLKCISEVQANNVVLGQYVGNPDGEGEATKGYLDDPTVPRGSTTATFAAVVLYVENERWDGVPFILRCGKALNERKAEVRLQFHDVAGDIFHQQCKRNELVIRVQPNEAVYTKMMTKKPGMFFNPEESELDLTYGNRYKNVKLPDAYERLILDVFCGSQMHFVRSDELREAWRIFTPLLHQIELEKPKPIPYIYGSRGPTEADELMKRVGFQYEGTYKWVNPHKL
Large T antigen, sequence (P03070 whole entry): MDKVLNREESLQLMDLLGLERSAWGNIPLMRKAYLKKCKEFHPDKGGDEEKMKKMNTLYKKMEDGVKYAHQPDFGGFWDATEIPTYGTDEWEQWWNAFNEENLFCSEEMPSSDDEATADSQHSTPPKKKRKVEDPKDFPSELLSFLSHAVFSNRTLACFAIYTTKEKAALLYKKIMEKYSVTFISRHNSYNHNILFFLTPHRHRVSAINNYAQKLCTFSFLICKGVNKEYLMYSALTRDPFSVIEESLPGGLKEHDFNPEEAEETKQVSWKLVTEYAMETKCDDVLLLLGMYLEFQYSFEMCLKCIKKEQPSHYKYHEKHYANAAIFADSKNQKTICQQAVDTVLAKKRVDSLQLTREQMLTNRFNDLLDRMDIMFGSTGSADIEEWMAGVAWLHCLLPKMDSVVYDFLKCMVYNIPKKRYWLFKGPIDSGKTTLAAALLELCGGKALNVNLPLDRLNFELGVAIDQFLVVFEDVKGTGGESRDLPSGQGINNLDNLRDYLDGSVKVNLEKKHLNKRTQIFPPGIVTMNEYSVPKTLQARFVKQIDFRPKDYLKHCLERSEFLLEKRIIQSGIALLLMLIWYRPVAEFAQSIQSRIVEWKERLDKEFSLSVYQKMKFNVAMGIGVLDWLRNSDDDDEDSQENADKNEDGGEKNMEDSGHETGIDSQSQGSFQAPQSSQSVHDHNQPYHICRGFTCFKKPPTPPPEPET
Genome polyprotein, sequence (P29990 2492-3391 limits assumed): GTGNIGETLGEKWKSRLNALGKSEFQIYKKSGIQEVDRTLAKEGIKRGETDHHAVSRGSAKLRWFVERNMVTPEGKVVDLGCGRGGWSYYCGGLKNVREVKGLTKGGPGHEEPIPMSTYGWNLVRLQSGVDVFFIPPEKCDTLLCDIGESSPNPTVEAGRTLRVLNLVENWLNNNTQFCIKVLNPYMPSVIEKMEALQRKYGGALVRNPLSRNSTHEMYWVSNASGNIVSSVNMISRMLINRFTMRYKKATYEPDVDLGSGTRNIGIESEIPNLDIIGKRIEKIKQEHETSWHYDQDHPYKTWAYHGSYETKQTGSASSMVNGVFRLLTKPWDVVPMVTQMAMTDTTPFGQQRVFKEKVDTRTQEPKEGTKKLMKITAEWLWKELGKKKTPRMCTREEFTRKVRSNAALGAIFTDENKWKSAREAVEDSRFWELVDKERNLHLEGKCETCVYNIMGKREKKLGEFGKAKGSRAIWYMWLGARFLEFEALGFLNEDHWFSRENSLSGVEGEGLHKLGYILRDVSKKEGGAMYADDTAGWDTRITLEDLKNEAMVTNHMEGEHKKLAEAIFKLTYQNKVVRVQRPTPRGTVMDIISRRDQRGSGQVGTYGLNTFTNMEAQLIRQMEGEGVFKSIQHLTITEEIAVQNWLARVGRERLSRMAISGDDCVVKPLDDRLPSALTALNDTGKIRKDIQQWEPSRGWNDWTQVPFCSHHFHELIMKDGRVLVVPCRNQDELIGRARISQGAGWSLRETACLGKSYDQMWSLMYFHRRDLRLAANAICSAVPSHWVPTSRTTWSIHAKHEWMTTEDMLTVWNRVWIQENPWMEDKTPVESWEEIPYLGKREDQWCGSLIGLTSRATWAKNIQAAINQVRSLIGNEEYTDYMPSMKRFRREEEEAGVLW

Structure (SMILES): CNC(=O)c1cccc2c(Nc3ccc(NS(C)(=O)=O)cc3OC)c3cccc(C)c3nc12
- GI50 (P388): < 0.01 µM (active)
- GI50 (SN12K1): < 0.01 µM (active)
- GI50 (P388/ADR): 0.0488 µM (active)

Structure (SMILES): CC1CCCCC1NC(=O)CCCCCn1c(=S)[nH]c2ccsc2c1=O (centres undefined)
- IC50 [1]: < 0.368 µM (active)
- IC50 [2]: > 20 µM (inactive)
- EC50 [3]: > 53 µM (inactive)

Structure (SMILES): CC(=O)O[C@H]1CC[C@@]2(C)[C@H](CC[C@@H]3[C@@H]2CC[C@]2(C)[C@@H](c4ccc(=O)oc4)C[C@H]4O[C@]342)C1
- GI50 (P388): 11 µM (inactive)
- GI50 (SN12K1): 0.426 µM (active)
- GI50 (P388/ADR): 40.9 µM (inactive)

Structure (SMILES): CCOC(=O)c1sc(NC(=O)CSc2nnc(Cc3ccccc3)o2)c(C#N)c1C
- IC50 [4]: > 80 µM (inactive)

Structure (SMILES): CC(C)Cc1csc(NC(=O)c2ccc(Cl)cc2)c1C(=O)O
- IC50 [1]: 5.06 µM (active)
- IC50 [2]: 17.8 µM (active)
- EC50 [3]: 25.8 µM (active)

Structure (SMILES): C[C@H](NC(N)=O)C(=O)Nc1ccc(N2CCOCC2)c(S(=O)(=O)Nc2ccc(Cl)cc2)c1
- IC50 [4]: > 80 µM (inactive)

Structure (SMILES): Cc1ccc(-c2c(C(=O)N/N=C/c3ccsc3)nnn2-c2nonc2N)cc1
- IC50 [4]: > 80 µM (inactive)

Structure (SMILES): COc1ccccc1NC(=O)N[C@@H]1C=C[C@H](CC(=O)NCc2ccc(Cl)c(Cl)c2)O[C@@H]1CO
- AC50 [5]: 14.6 µM (active)
- AC50 [6]: 43 µM (active)

Structure (SMILES): C=C1CC(OC)(C(OC)C(=O)N[C@H]2OCO[C@H]3C2O[C@H](C[C@@H](COC)OC)C(C)(C)C3OC)O[C@H](C)[C@@H]1C (some centres undefined)
- GI50 (P388): 0.147 µM (active)
- GI50 (SN12K1): 1.06 µM (active)
- GI50 (P388/ADR): 0.57 µM (active)

Structure (SMILES): CCCn1c(O)nnc1SCc1nc2ccccc2s1
- EC50 [7]: 3.71 µM (active)
- IC50 [8]: 0.803 µM (not active)
- EC50 (H4): 37.1 µM (active)
- EC50 [9]: 22.7 µM (active)

Structure (SMILES): CCOc1ccc(NC(=O)c2ccc(NC(=O)c3ccc(NC(N)=O)cc3)cc2)cc1
- IC50 [10]: 3.89 µM (active)

Structure (SMILES): NC(Cc1ccc([N+](=O)[O-])cc1)=NOC(=O)c1ccc(Br)cc1
- IC50 [2]: 9.44 µM (active)

Structure (SMILES): Cc1nc2ccccc2c(=O)n1CC(=O)O
- GI50 (P388): > 100 µM (inactive)
- GI50 (SN12K1): > 100 µM (inactive)
- GI50 (P388/ADR): > 100 µM (inactive)

Structure (SMILES): CC(Cl)=CCn1c(NCCc2ccccc2)nc2c1c(=O)n(C)c(=O)n2C
- AC50 [5]: 33.4 µM (active)
- AC50 [11]: 58.8 µM (active)
- AC50 [6]: 3.67 µM (active)
- AC50 [12]: 0.974 µM (active)

Structure (SMILES): CCCCn1c(CN2CCN(c3ccc(F)cc3)CC2)nc2c1c(=O)n(C)c(=O)n2C
- AC50 [11]: 5.36 µM (active)
- AC50 [13]: 2.73 µM (active)
- AC50 [12]: 23 µM (active)

Structure (SMILES): O=C(CBr)c1ccc([N+](=O)[O-])c(CS(=O)(=O)c2ccc(Cl)cc2)c1
- EC50 [14]: 31.9 µM (active)
- IC50 [4]: > 80 µM (inactive)

Structure (SMILES): C[C@H](C(=O)N(C)C[C@@H]1OCc2ccccc2-c2ccccc2C(=O)N([C@@H](C)CO)C[C@H]1C)c1ccccc1
- AC50 [5]: 1.23 µM (active)
- AC50 [6]: 8.04 µM (active)

Structure (SMILES): Nc1nc(N)c2cc(Sc3cccc(C(F)(F)F)c3)ccc2n1 [WR-159412]
- AC50 [11]: 2.34 µM (active)
- AC50 [13]: 4.87 µM (active)
- AC50 [12]: 19.7 µM (active)

Structure (SMILES): Nc1ccc2c(c1)C1=NNC(=O)CC1C2 (centres undefined)
- GI50 (P388): > 100 µM (inactive)
- GI50 (SN12K1): > 100 µM (inactive)
- GI50 (P388/ADR): > 100 µM (inactive)

Structure (SMILES): O=C(O/N=C/c1ccc2c(c1)OCO2)c1ccc([N+](=O)[O-])cc1
- IC50 [8]: 16 µM (not active)
- IC50 (cells): 8.31 µM (active)

Structure (SMILES): CCc1c(CNc2ccc(C(=O)NC(CC(=O)O)C(=O)O)cc2)ccc2nc(N)nc(N)c12 (centres undefined)
- GI50 (P388): < 0.0144 µM (active)
- GI50 (SN12K1): < 0.0202 µM (active)
- GI50 (P388/ADR): 0.0179 µM (active)

Structure (SMILES): O=C(C[C@@H]1CC[C@H]2[C@@H](COC[C@H](O)CN2Cc2cccc(C(F)(F)F)c2)O1)NCc1ccc(Cl)cc1
- AC50 [5]: 4.85 µM (active)
- AC50 [6]: 10.9 µM (active)

Structure (SMILES): O=C1NC(=O)C(=Cc2ccc(-c3ccccc3[N+](=O)[O-])o2)C(=O)N1
- IC50 (Large T antigen): 62.2 µM (active)
- IC50 [4]: > 80 µM (inactive)
- IC50 (Genome polyprotein): 17.8 µM (active)

Structure (SMILES): CN(c1ccccc1)S(=O)(=O)c1ccc(Cl)c(C(=O)OCC(=O)NCc2ccco2)c1
- IC50 [10]: 8.74 µM (active)

Structure (SMILES): O=C(Nc1cc(Sc2ccccn2)cc([N+](=O)[O-])c1)c1cccc(F)c1
- AC50 (INS1): 5.55 µM (active)
- IC50 [8]: 5.86 µM (not active)

Structure (SMILES): CCc1ccc(OCC(=O)NC(N=C(S)Nc2ccc(Cl)cc2)C(Cl)(Cl)Cl)cc1 (centres undefined)
- EC50 [15]: 13.6 µM (active)
- EC50 [16]: 13.8 µM (active)
- AC50 [11]: 18.1 µM (active)
- AC50 [13]: 4.96 µM (active)
- AC50 [12]: 26.1 µM (active)
